The target of one data set is T1, ALK2 (ACVR1) (Homo sapiens, UniProt Q04771).
T1 construct: purchased Eurofins (KINOMEscan service)
T1 sequence (Q04771 21-509): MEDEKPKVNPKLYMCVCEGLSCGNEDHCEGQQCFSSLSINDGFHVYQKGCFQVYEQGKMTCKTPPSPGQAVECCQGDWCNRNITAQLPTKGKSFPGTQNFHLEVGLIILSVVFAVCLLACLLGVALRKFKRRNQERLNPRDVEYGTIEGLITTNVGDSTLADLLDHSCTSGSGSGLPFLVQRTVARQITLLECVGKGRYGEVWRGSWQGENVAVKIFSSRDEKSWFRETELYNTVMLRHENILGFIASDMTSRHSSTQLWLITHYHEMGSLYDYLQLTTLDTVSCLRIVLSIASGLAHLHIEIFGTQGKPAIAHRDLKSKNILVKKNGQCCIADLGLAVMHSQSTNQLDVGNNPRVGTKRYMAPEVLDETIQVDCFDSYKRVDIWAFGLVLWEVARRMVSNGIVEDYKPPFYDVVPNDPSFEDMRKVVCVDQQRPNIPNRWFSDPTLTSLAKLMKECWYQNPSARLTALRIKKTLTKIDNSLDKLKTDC
Put plainly: KINOMEscan affinity, competition binding. As for the experimental part: The affinity, measured as Kd (dissociation constants), of the compound of formula I for the ALK family was determined by using the KINOMEscan™ Technology from Eurofins. Selectivity in front of ALK1 (ACVRL1), ALK2 (ACVR1), ALK3 (BMPR1A), ALK4 (ACVR1B), ALK6 (BMPR1B), ACVR2B and TGFβR2 was determined.
The KINOMEscan screening platform employs an active-site directed competition binding assay to quantitatively measure interactions between test compounds and kinases.
The assay is performed by combining three components: DNA-tagged kinase; immobilized ligand; and a test compound. The ability of the test compound to compete with the immobilized ligand is measured via quantitative PCR of the DNA tag.
Test compounds were prepared as 111× stocks in 100% DMSO. Kds were determined using an 11-point 3-fold compound dilution series with three DMSO control points being the top concentration 30 μM. […] The compounds were then diluted directly into the assays such that the final concentration of DMSO was 0.9%. All reactions performed in polypropylene 384-well plate. Each was a final volume of 0.02 ml. […] The beads were then re-suspended in elution buffer (1×PBS, 0.05% Tween 20, 0.5 μM non-biotinylated affinity ligand) and incubated at room temperature with shaking for 30 minutes. The kinase concentration in the eluates was measured by qPCR.
Compounds that bind the kinase active site and directly (sterically) or indirectly (allosterically) prevent kinase binding to the immobilized ligand, will reduce the amount of kinase captured on the solid support. […] Dissociation constants (Kds) for test compound-kinase interactions are calculated by measuring the amount of kinase captured on the solid support as a function of the test compound concentration.

Data set [1] deals with proteins in the SafetyScreen44 panel (versus ALK5). Briefly: SafetyScreen44 safety panel. The note with it: SafetyScreen44 panel (Eurofins) of off-target proteins; read-out: selectivity ratios for the proteins in the SafetyScreen44 panel. As for the experimental part: (§1) In addition, a safety assessment was performed by using the SafetyScreen44™ service from Eurofins. The targets therein are all strongly associated with in vivo adverse drug reactions as referenced in the publication Reducing safety-related drug attrition: the use of in vitro pharmacological profiling (Bowes J et al., Nature Review Drug Discovery 2012, 11(12): 909-922). The panel represents a rational first step in preliminary safety assessments as they provide early identification of potential off-target interactions for the optimization of safety margins. This Safety Panel includes both enzymatic and binding assays. The percentage of inhibition for the compound of formula I at 10 μM was lower than 50% for all proteins tested.

Data set [2] deals with proteins in the SafetyScreen44 panel. Put plainly: SafetyScreen44 safety panel. The note with it: at 10 μM, all proteins tested. As for the experimental part:
as §1

Data set [3] has as its system MTO129 liver metastases. Put plainly: Mouse liver metastasis initiation/formation assay with MTOs. Format: in vivo. The note with it: for Efficacy (Cure rate): two weeks, mice with no metastases. The source says:
Mouse tumor organoids (MTOs) are derived from compound transgenic mice (conditional mutations in Apc, Kras, Trp53 and Tgfbr2, as well as bearing Lgr5-EGFP/CreER^T2) of the C57BL6/J strain and cultured as described in Tauriello et al. 2018 Nature 554(7693): 538-543. doi: 10.1038/nature25492. Organoids are tumor epithelial cells grown in a 3D matrix where they adopt an organotypic architecture, typically as spheroids with a lumen. In this way, cells retain a relatively normal polarity (which means that the outside surface, inside/luminal surface and cell-cell contacts are individually specialized), which is more physiological than in conventional 2D cell culture.
In all experiments described in present invention MTO129 were used (Tauriello et al. Nature. 2018).
In patients, treatment doses were reduced to 80 to 150 mg b.i.d in a regime of 14 days on-14 days off.
MTOs expressing a luciferase reporter were measured by bioluminescence imaging, using retroorbital injection of 50 μl 15 mg/ml D-luciferin potassium salt (Resem BV). Photons per second from the region spanning thorax/abdomen were quantified and normalized to the measure at the day of injection.
Control mice were treated with 150 μl of vehicle.
In the experiment shown in FIG. 13, potency of the indicated compounds to inhibit metastasis formation was assessed. Mice were treatments with indicated compounds started two days after MTO129 transplantation and continued during two weeks. Mice were sacrificed at 4 weeks post transplantation and liver metastases (LiMs) were counted by eye on fixed livers.

In data set [4] the test system is MTO129 liver metastases. Put plainly: Liver metastasis formation assay versus compounds 338 and 337 (FIG. 17). Format: in vivo, mouse. The note with it: FIG. 17, 1× dose, day 2 to 18, count at 21 days. As for the experimental part: In another experiment (FIG. 17), we compared the in vivo therapeutic activity of compound of formula I to the related compound 338 and compound 337. […] All mice were treated from day 2 to day 18 post inoculation of tumor cells. Number of liver metastases were counted at 21 days after MTO inoculation.

For `Cc1cccc(-c2nn3c(c2-c2ccnc4ccc(O)cc24)CCC3)n1` [compound of formula I, 4-(2-(6-methylpyridin-2-yl)-5,6-dihydro-4H-pyrrolo[1,2-b]pyrazol-3-yl)quinolin-6-ol], on ALK2 (ACVR1) ((I) versus Galunisertib), the Selectivity improvement worked out at 1.8. For the same compound, the “Selectivity against ALK5” value on ALK2 (ACVR1) (ALK2 versus ALK5) worked out at 375. In addition, the “selectivity for ALK5 against ALK2” value on ALK2 (ACVR1) (KINOMEscan) is listed as “greater than 300 fold”. In addition, the selectivity ratio at 10 μM in data set [1] is more than 500. In data set [2], the percentage of inhibition entry is “lower than 50%”. In addition, the “Efficacy (Cure rate)” value is listed as approximately 90% in the data set on MTO129 liver metastases [3] (0.3x dose), approximately 90% with MTO129 liver metastases [3] (1x dose), 100% in the data set on MTO129 liver metastases [3] (3x dose) and 100% in the data set with MTO129 liver metastases [3] (9x dose). The “liver tumor count (LiMs) compared to galunisertib” value in the data set on MTO129 liver metastases [3] (FIG. 3, 0.3× to 9× doses) is given as “significant lower amount of liver tumors”. Besides, the “metastatic tumor growth inhibitory capacity (bioluminescence)” value in the data set on MTO129 liver metastases [3] (FIG. 4, 0.3× dose, day 3 until day 14) is “effective”. Besides, the “activity in preventing liver metastasis formation, in words” value with MTO129 liver metastases [3] (FIG. 13, 0.3× dose (21.25 mg/Kg b.i.d)) was “still effective”; in the data set with MTO129 liver metastases [3] (FIG. 13, 1× dose) it was “significant improved activity”. For the same compound, the “effective dose, fold lower than the effective Galunisertib dose” value in the data set on MTO129 liver metastases [3] (in vivo experiments) was determined as 10 fold. For the same compound, in the data set on MTO129 liver metastases [3] (oral, divided b.i.d.), the “effective dose (>50% efficacy)” value turned out to be 42.5 mg/kg/day. Besides, the “potency to block the formation of metastasis compared to compound 338 and compound 337” value in the data set on MTO129 liver metastases [4] is recorded as “enhanced potency”. In addition, the “toxicity screens including genotoxicity” value in “Genotoxicity screens” is on record as “cleared”.

Source of the values: US20220089600A1, “TGFß INHIBITOR AND PRODRUGS” (FUNDACIÓ INSTITUT DE RECERCA BIOMÈDICA (IRB BARCELONA), priority 2018, published 2022).
